# Where a chain is given by its changes, count along the chain named.
# Tests used:
# [1] = test system: LNCaP cells; assay: Assay on inhibitory activity for LNCaP cell proliferation (CCK-8); format: cell-based; settings: 168 h incubation
# How it was run: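 Cells seeded at 1×10^5 cells/mL in phenol red-free 1640 with 2% CSS-FBS, treated at final 10000 nM-0.61 nM in duplicate. After 168 h incubation, viability read with CCK-8.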
# [2] = In vitro stability in liver microsome; format: in vitro ADME; settings: human liver microsome 0.5 mg/mL, NADPH, 37° C.
# Procedure: Liver microsome incubation samples (species: human, monkey, rat, and mouse) were prepared by mixing a PBS buffer (pH=7.4), a liver microsome solution (0.5 mg/mL), a test compound, and an NADPH+MgCl2 solution and incubated at 37° C. and 300 rpm for 1 h. Zero-hour samples were prepared by mixing a PBS buffer (pH=7.4), a liver microsome solution (0.5 mg/mL), and a test compound. An acetonitrile solution containing an internal standard was added to the samples, and supernatants were prepared by protein precipitation, diluted, and then assayed by LC/MS/MS.
# [3] = target: T1, AR in VCaP cells (Homo sapiens, UniProt P10275); assay: Assay on degradation activity for AR in VCaP cells (HTRF human androgen receptor detection kit); format: cell-based; settings: 24 h incubation
# T1 construct: Assay on Degradation Activity for AR in VCaP Cells; endogenous in cells; host or cells: VCaP cells
# T1 sequence (P10275 1-920): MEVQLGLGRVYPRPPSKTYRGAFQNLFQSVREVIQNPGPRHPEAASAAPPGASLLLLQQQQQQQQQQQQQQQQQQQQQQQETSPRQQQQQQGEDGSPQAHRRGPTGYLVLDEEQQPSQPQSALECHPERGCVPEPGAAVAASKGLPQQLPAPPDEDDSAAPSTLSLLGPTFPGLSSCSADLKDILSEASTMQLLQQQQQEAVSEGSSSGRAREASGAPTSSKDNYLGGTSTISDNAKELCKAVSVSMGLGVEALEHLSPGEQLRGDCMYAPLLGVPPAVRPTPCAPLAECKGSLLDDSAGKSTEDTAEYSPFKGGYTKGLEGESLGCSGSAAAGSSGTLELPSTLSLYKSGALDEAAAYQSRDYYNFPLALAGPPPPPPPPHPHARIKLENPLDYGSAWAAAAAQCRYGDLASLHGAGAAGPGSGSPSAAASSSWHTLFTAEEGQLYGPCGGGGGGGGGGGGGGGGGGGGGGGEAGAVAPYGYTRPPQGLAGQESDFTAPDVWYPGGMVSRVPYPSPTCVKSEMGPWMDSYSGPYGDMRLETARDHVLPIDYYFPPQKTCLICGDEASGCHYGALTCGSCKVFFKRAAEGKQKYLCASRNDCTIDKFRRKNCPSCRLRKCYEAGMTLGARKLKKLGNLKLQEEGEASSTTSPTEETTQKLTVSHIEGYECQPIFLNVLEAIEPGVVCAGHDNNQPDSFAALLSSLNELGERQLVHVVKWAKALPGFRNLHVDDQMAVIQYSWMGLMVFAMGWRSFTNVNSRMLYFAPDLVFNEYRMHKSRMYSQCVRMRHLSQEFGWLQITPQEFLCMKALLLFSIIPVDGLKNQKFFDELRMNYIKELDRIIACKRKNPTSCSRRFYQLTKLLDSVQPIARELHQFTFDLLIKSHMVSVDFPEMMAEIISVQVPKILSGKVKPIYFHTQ
# Procedure: (§1) The detection was carried out using the HTRF HUMAN ANDROGEN RECEPTOR DETECTION KIT (cisbio, 64ANDRPEG), 4× Supplemented Lysis buffer was prepared using the Blocking reagent stock solution (100×) and Lysis buffer stock solution (4×), and 1× Supplemented Lysis buffer was prepared using the 4× Supplemented Lysis buffer and ddH2O. Premixed antibody solutions were prepared using Detection buffer, Androgen Receptor Eu Cryptate antibody, and Androgen Receptor d2 antibody.
# (§2) VCaP cells in a good growth state were taken, washed with PBS, digested with pancreatin, and added with 2% CSS—FBS phenol red-free DMEM complete medium to terminate the digestion. The cells were collected by using a centrifuge tube, adjusted to a cell density of 1×10^6 cells/mL, and seeded in a 96-well plate (100 µL/well). The cells were incubated overnight in a cell incubator. Compounds were added using a nanoliter pipettor such that the final concentrations of the compounds were 1000 nM-0.977 nM. Two duplicate wells were set for each concentration, and meanwhile, a control was set. After another 24 h of incubation in the cell incubator, the medium was pipetted out, the 1× Supplemented Lysis buffer was added at 40 μL/well to lyse the cells. After the cells were oscillated for 40 min at room temperature, 16 μL of the cell lysate was added to a 384-well plate, the Premixed antibody solutions were added at 4 μL/well, and the mixture was left to stand at 25° C. for 2 h. Fluorescence values were detected at 665 nm/620 nm using an Envision microplate reader, the four-parameter analysis was performed, the dose-response curves were fit, and DC50 (the concentration of the drug when the degradation rate reaches 50%) and Dmax (the maximum degradation rate) were calculated.
# [4] = target: T2, AR in LNCaP cells (Homo sapiens, UniProt P10275, T878A); assay: Assay on degradation activity for AR in LNCaP cells (HTRF human androgen receptor detection kit); format: cell-based; settings: 24 h incubation; for DC50: HTRF
# T2 construct: Assay on Degradation Activity for AR in LNCaP Cells; endogenous in cells; host or cells: LNCaP cells
# T2 sequence (P10275 1-920 T878A): T1 sequence (P10275 1-920) with T878A
# Procedure: as §1
# as §2, with “LNCaP” for “VCaP”, “1640” for “DMEM”, “μL/well).” for “µL/well).”, “500 nM-0.488” for “1000 nM-0.977”
# [5] = test system: VCaP cells; assay: Assay on inhibitory activity for VCaP cell proliferation (CCK-8); format: cell-based; settings: 168 h incubation
# How it was run: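 VCaP cells seeded at 1×10^5 cells/mL in phenol red-free DMEM with 5% charcoal-stripped FBS, treated in duplicate at 10000–0.61 nM final. After 168 h incubation, viability was read with CCK-8.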
SMILES,IC50 ([1]; Homo sapiens),Human liver microsome Residuals at 60 min (%) [2],IC50 [1],DC50 [3],DC50 [4],"IC50 ([5]; Homo sapiens, VCaP, 168 h)","Degradation activity for AR in LNCaP cells (Dmax, %) ([4]; maximum degradation rate)",IC50 [5],Dmax ([4]; maximum degradation rate),IC50 ([5]; Homo sapiens)
"N#Cc1ccc(O[C@H]2CC[C@H](NC(=O)c3ccc(N4CCC5(CC4)CN(C4Cc6ccc7c(C8CCC(=O)NC8=O)noc7c6C4)C5)nn3)CC2)cc1Cl (single isomer, unassigned) [Compound 24]",< 1000 nM,>85%,–,–,–,–,–,–,–,–
N#Cc1ccc(O[C@H]2CC[C@H](NC(=O)c3ccc(N4CCC(CN5CC6(Cc7ccc8c(C9CCC(=O)NC9=O)noc8c7C6)C5)CC4)nn3)CC2)cc1Cl (some centres unmarked) [Compound 21],< 1000 nM,>85%,–,–,–,–,–,–,–,–
CN(c1ccc(C#N)c(Cl)c1)[C@H]1CC[C@H](NC(=O)c2cnc(N3CCC(CN4CCc5c(ccc6c(C7CCC(=O)NC7=O)noc56)C4)CC3)nc2)CC1 (some centres unmarked) [Compound 117],< 1000 nM,–,–,≤ 1 nM,≤ 20 nM,–,–,–,> 80%,< 100 nM
CN(c1ccc(C#N)c(Cl)c1)[C@H]1CC[C@H](NC(=O)c2ccc(N3CCC(CN4CCc5c(ccc6c(C7CCC(=O)NC7=O)noc56)C4)CC3)nn2)CC1 (some centres unmarked) [Compound 118],< 1000 nM,–,–,≤ 1 nM,≤ 20 nM,–,–,–,> 80%,< 100 nM
N#Cc1ccc(O[C@H]2CC[C@H](NC(=O)c3cnc(N4CCC(CN5CCc6c(ccc7c(C8CCC(=O)NC8=O)noc67)C5)CC4)cn3)CC2)cc1Cl (some centres unmarked) [Compound 145],< 1000 nM,–,–,≤ 1 nM,≤ 20 nM,–,–,–,> 80%,< 100 nM

# Further lines, with some results ahead:
IC50 ([1]; Homo sapiens),Human liver microsome Residuals at 60 min (%) [2],IC50 [1],DC50 [3],DC50 [4],"IC50 ([5]; Homo sapiens, VCaP, 168 h)","Degradation activity for AR in LNCaP cells (Dmax, %) ([4]; maximum degradation rate)",IC50 [5],SMILES,Dmax ([4]; maximum degradation rate),IC50 ([5]; Homo sapiens)
–,>85%,< 1000 nM,–,–,–,–,–,"N#Cc1ccc(O[C@H]2CC[C@H](NC(=O)c3ccc(N4CCC5(CC4)CN(C4Cc6ccc7c(C8CCC(=O)NC8=O)noc7c6C4)C5)nn3)CC2)cc1Cl (single isomer, unassigned) [Compound 25]",–,–
< 1000 nM,–,–,≤ 1 nM,≤ 20 nM,< 10 nM,–,–,N#Cc1ccc(O[C@H]2CC[C@H](NC(=O)c3ccc(N4CCC(CN5CC(CN6Cc7cc8onc(C9CCC(=O)NC9=O)c8cc7C6)C5)CC4)nn3)CC2)cc1Cl (some centres unmarked) [Compound 102],> 80%,–
< 1000 nM,–,–,≤ 1 nM,≤ 20 nM,< 10 nM,–,–,N#Cc1ccc(O[C@H]2CC[C@H](NC(=O)c3ccc(N4CCN(C5CN(CC6Cc7ccc8c(C9CCC(=O)NC9=O)coc8c7C6)C5)CC4)nn3)CC2)cc1Cl (some centres unmarked) [Compound 107],> 80%,–
< 1000 nM,–,–,≤ 1 nM,≤ 20 nM,< 100 nM,–,–,N#Cc1ccc(O[C@H]2CC[C@H](NC(=O)c3cnc(N4CCN(C5CN(CC6Cc7ccc8c(C9CCC(=O)NC9=O)coc8c7C6)C5)CC4)nc3)CC2)cc1Cl (some centres unmarked) [Compound 109],> 80%,–
–,–,< 1000 nM,≤ 1 nM,≤ 20 nM,–,>80%,< 100 nM,N#Cc1ccc(O[C@H]2CC[C@H](NC(=O)c3cnc(N4CCN(C5CN(CC6Cc7ccc8c(C9CCC(=O)NC9=O)coc8c7C6)C5)CC4)nc3)CC2)cc1Cl (some centres unmarked) [Compound 110],–,–

# Source: patent publication US20260035384A1, “COMPOUND CONTAINING CYCLOHEXYL” (CHIA TAI TIANQING PHARMACEUTICAL GROUP CO., LTD., priority 2022, published 2026)
